Drawing on ChEMBL document CHEMBL5625230, “The recent developments of camptothecin and its derivatives as potential anti-tumor agents” (Eur J Med Chem, 2023), this text covers IC50 and inhibition in vivo for 13 molecules.

Structures are written as SMILES.

The nature of data set [1]: Anticancer activity against human KBV cells assessed as reduction in cell growth measured after 72 hrs by SRB assay. The data set is classed as functional, cell-based. (In SRB staining, fixed cells bind dye roughly in proportion to their protein.)
In data set [2] the test system is A549. The data set is described as follows: Antiproliferative activity against human A549 cells assessed as inhibition of cell viability measured after 72 hrs by CCK-8 assay. Type of data set: functional, cell-based. The conditions noted are these: A549, 72 h. For orientation: Formazan colour is commonly taken as a measure of viable cells.
Another data set deals with HL-60. Briefly: Antiproliferative activity against human HL-60 cells assessed as reduction in cell viability incubated for 48 hrs by MTT assay. The data set is classed as functional, cell-based. The conditions noted are these: HL-60, 48 h.
Data set [3] can be described thus: Cytotoxicity against Sf9 cells assessed as inhibition of cell growth measured after 24 hrs by MTT assay. Type of data set: toxicity, cell-based. The conditions noted are these: Spodoptera frugiperda.
The test system of another data set is PC-3M. The data set is described as follows: Cytotoxicity against human PC-3M cells assessed as reduction in cell viability measured after 72 hrs by MTS assay. The data set is classed as functional, cell-based.
Data set [4] has as its system A549. Briefly: Antitumor activity against human A549 cells assessed as reduction in cell viability incubated for 72 hrs by CCK-8 assay. The conditions noted are these: A549, 72 h. The data set is classed as functional, cell-based.
In another data set the test system is HepG2. Briefly: Antiproliferative activity against human HepG2 cells assessed as reduction in cell viability incubated for 72 hrs by MTT assay. The data set is classed as functional, cell-based. The note with it: HepG2, 72 h.
In another data set the test system is HT-29. The data set is described as follows: Antiproliferative activity against human HT-29 cells assessed as reduction in cell viability incubated for 72 hrs by MTT assay. The data set is classed as functional, cell-based. The note with it: HT-29, 72 h.
Data set [5] is described as follows: Antitumor activity against mouse RM1 cells xenografted in C57BL/6 mouse assessed as tumor growth inhibition at 9 mg/kg, ip administered every other day for 3 times and measured on day 7 relative to control. The data set is classed as functional. The note with it: RM1, 168 h, time 7 day, read-out: TGI.

Broadly, the IC50 is the concentration that gives 50% inhibition.

Turning to `CC[C@@]1(O)C(=O)OCc2c1cc1n(c2=O)Cc2c-1nc1ccccc1c2CN1CCN(C(=S)Nc2ccccc2OC)CC1`, the IC50 in [1] amounted to 514000 nM.
`CC[C@]1(O)c2cc3n(c(=O)c2CO[C@H]1F)Cc1cc2c4c(ccc2nc1-3)OCN(C1CCCCC1)C4`: the IC50 in the data set on A549 [2] came out at 630 nM.
As to `CC[C@@]1(OCc2cn([C@@H]3c4cc5c(cc4[C@@H](c4cc(OC)c(O)c(OC)c4)[C@H]4C(=O)OC[C@@H]43)OCO5)nn2)C(=O)OCc2c1cc1n(c2=O)Cc2cc3ccccc3nc2-1`, the IC50 in the data set on HL-60 was 17700 nM.
Regarding `CCCCCNC(=O)c1c2c(nc3ccccc13)-c1cc3c(c(=O)n1C2)COC(=O)[C@]3(O)CC`, the 50% inhibitory concentration (IC50) at 24 h in data set [3] was determined as 2010 nM.
Take `CC[C@]1(O)c2cc3n(c(=O)c2CO[C@H]1F)Cc1cc2c4c(ccc2nc1-3)OCN(C1CC1)C4`: the IC50 in the data set with A549 [2] was determined as 630 nM.
With `CC[C@@]1(O)C(=O)OCc2c1cc1n(c2=O)Cc2c-1nc1ccccc1c2C(=O)NCc1ccccc1`, in [3], the IC50 at 24 h worked out at 2010 nM.
Consider `CC[C@@]1(O)C(=O)OCc2c1cc1n(c2=O)Cc2c-1nc1ccccc1c2C(=O)NCc1ccc(F)cc1`, for which the IC50 at 24 h in data set [3] worked out at 2010 nM.
Regarding `CC[C@]1(O)c2cc3n(c(=O)c2CO[C@H]1F)Cc1cc2c4c(ccc2nc1-3)OCN(C1CCC1)C4`, the half-inhibitory concentration (IC50) with A549 [2] was 630 nM.
On the same count and under the same terms, the value for `CC[C@]1(O)c2cc3n(c(=O)c2CO[C@H]1F)Cc1cc2c4c(ccc2nc1-3)OCN(C1CCCC1)C4` was 630 nM.
For `CC[C@@]1(O)C(=O)OCc2c1cc1n(c2=O)Cc2c-1nc1ccccc1c2CN1CCN(C(=S)Nc2cccc3ccccc23)CC1`, the half-maximal inhibitory concentration (IC50) in data set [1] is 275000 nM.
Consider `CC[C@@]1(OC(=O)[C@@H](Cc2ccccc2)NC(=O)OC(C)(C)C)C(=O)OCc2c1cc1n(c2=O)Cc2cc3ccccc3nc2-1`, for which the half-inhibitory concentration (IC50) amounted to 88 nM in the data set on PC-3M and 18 nM in the data set on A549 [4].
Take `CCCCCCCCCCCCCCCCOC(=O)[C@@]1(C)CCc2c(C)c(OC(=O)CCC(=O)O[C@]3(CC)C(=O)OCc4c3cc3n(c4=O)Cc4c-3nc3ccc(O)cc3c4CC)c(C)c(C)c2O1`: the figures for the IC50 in the data set with HepG2 and in the data set on HT-29 were 165 nM and 45.1 nM, respectively.
With `CC[C@@]1(OC(=O)CCC(=O)O[C@@H]2O[C@@H](C)[C@H](OC(C)=O)[C@@H](OC(C)=O)[C@H]2OC(C)=O)C(=O)OCc2c1cc1n(c2=O)Cc2cc3cc4c(cc3nc2-1)OCO4`, in [5], the inhibition in vivo at 9 mg/kg stood at 44.9%.
